Data reported in ChEMBL document CHEMBL3885861, “Open TG-GATES”.

Species: Rattus norvegicus
Test: Open TG-GATES - Regimen: Daily Repeat
Assay type: toxicity, organism-based, Sprague-Dawley
Parameters: regimen Daily Repeat, gender Male, age 6 weeks
Conditions: in vivo, po, 1000 mg/kg, route gavage, dose level High; for APTT / Bas / Eos / Fbg / Hb / Ht / Lym / MCH / MCHC / MCV / Mono / Neu / PT / Plat / RBC / Ret / WBC: tissue Blood; for KIDNEY_L / KIDNEY_R / KIDNEY_TOTAL: tissue Kidney; for LIVER: tissue Liver; for A/G / ALP / ALT / AST / BUN / CRE / Ca / Cl / DBIL / GLC / IP / K / LDH / Na / PL / RALB / TBIL / TC / TG / TP / gamma-GTP: tissue Plasma

Which results are given for `CCOc1ccc(NC(=O)CC(C)O)cc1` (configuration not stated) [BUCETIN]?
TERMINAL_BW (72 h, time 3 day): 228.7 g; APTT (72 h, time 3 day): 18.5 s; Bas (72 h, time 3 day): 0%; Eos (72 h, time 3 day): 0.8%; Fbg (72 h, time 3 day): 270.2 mg/dL; Hb (72 h, time 3 day): 12.8 g/dL; Ht (72 h, time 3 day): 38.4%; Lym (72 h, time 3 day): 72.6%; MCH (72 h, time 3 day): 20.7 pg; MCHC (72 h, time 3 day): 33.4%; MCV (72 h, time 3 day): 61.9 fL; Mono (72 h, time 3 day): 2.8%; Neu (72 h, time 3 day): 22.6%; PT (72 h, time 3 day): 14.1 s; Plat (72 h, time 3 day): 123.8 x10_4/uL; RBC (72 h, time 3 day): 620 x10_4/ul; Ret (72 h, time 3 day): 2.9%; WBC (72 h, time 3 day): 111.1 x10_2/uL; KIDNEY_L (72 h, time 3 day): 1.1 g; KIDNEY_R (72 h, time 3 day): 1 g; KIDNEY_TOTAL (72 h, time 3 day): 2.1 g; LIVER (72 h, time 3 day): 11.8 g; A/G (72 h, time 3 day): 0.9; ALP (72 h, time 3 day): 1511.6 IU/L; ALT (72 h, time 3 day): 41.2 IU/L; AST (72 h, time 3 day): 74 IU/L; BUN (72 h, time 3 day): 15.4 mg/dL; CRE (72 h, time 3 day): 0.2 mg/dL; Ca (72 h, time 3 day): 10.6 mg/dL; Cl (72 h, time 3 day): 106.8 meq/L; DBIL (72 h, time 3 day): 0.028 mg/dL; GLC (72 h, time 3 day): 168 mg/dL; IP (72 h, time 3 day): 6.2 mg/dL; K (72 h, time 3 day): 4.3 meq/L; LDH (72 h, time 3 day): 76 IU/L; Na (72 h, time 3 day): 144.6 meq/L; PL (72 h, time 3 day): 161.4 mg/dL; RALB (72 h, time 3 day): 2.6 g/dL; TBIL (72 h, time 3 day): 0.06 mg/dL; TC (72 h, time 3 day): 78.6 mg/dL; TG (72 h, time 3 day): 102.2 mg/dL; TP (72 h, time 3 day): 5.6 g/dL; gamma-GTP (72 h, time 3 day): 1.2 IU/L; TERMINAL_BW ([…], time 7 day): 268.8 g; TERMINAL_BW ([…], time 14 day): 329.1 g; TERMINAL_BW ([…], time 28 day): 402.4 g; APTT ([…], time 7 day): 20.3 s; Bas ([…], time 7 day): 0%; Eos ([…], time 7 day): 1%; Fbg ([…], time 7 day): 270.6 mg/dL; Hb ([…], time 7 day): 12.7 g/dL; Ht ([…], time 7 day): 38.7%; Lym ([…], time 7 day): 67.2%; MCH ([…], time 7 day): 21 pg; MCHC ([…], time 7 day): 32.9%; MCV ([…], time 7 day): 64 fL; Mono ([…], time 7 day): 3.4%; Neu ([…], time 7 day): 27.6%; PT ([…], time 7 day): 14.3 s; Plat ([…], time 7 day): 126.9 x10_4/uL; RBC ([…], time 7 day): 606 x10_4/ul; Ret ([…], time 7 day): 9.2%; WBC ([…], time 7 day): 166.9 x10_2/uL; APTT ([…], time 14 day): 21.6 s; Bas ([…], time 14 day): 0.8%; Eos ([…], time 14 day): 0.6%; Fbg ([…], time 14 day): 295.4 mg/dL; Hb ([…], time 14 day): 12.9 g/dL; Ht ([…], time 14 day): 39.7%; Lym ([…], time 14 day): 69.2%; MCH ([…], time 14 day): 22.9 pg; MCHC ([…], time 14 day): 32.7%; MCV ([…], time 14 day): 70.1 fL; Mono ([…], time 14 day): 3%; Neu ([…], time 14 day): 26.2%; PT ([…], time 14 day): 14.3 s; Plat ([…], time 14 day): 126.3 x10_4/uL; RBC ([…], time 14 day): 567.8 x10_4/ul; Ret ([…], time 14 day): 10.4%; WBC ([…], time 14 day): 123.6 x10_2/uL; APTT ([…], time 28 day): 19.3 s; Bas ([…], time 28 day): 0.6%; Eos ([…], time 28 day): 1.2%; Fbg ([…], time 28 day): 278.2 mg/dL; Hb ([…], time 28 day): 14.3 g/dL; Ht ([…], time 28 day): 42.1%; Lym ([…], time 28 day): 78.2%; MCH ([…], time 28 day): 23.2 pg; MCHC ([…], time 28 day): 34%; MCV ([…], time 28 day): 68.4 fL; Mono ([…], time 28 day): 2.2%; Neu ([…], time 28 day): 17.4%; PT ([…], time 28 day): 14.4 s; Plat ([…], time 28 day): 102.2 x10_4/uL; RBC ([…], time 28 day): 618.4 x10_4/ul; Ret ([…], time 28 day): 8%; WBC ([…], time 28 day): 137.4 x10_2/uL; KIDNEY_L ([…], time 7 day): 1.1 g; KIDNEY_R ([…], time 7 day): 1.1 g; KIDNEY_TOTAL ([…], time 7 day): 2.3 g; KIDNEY_L ([…], time 14 day): 1.3 g; KIDNEY_R ([…], time 14 day): 1.3 g; KIDNEY_TOTAL ([…], time 14 day): 2.7 g; KIDNEY_L ([…], time 28 day): 1.6 g; KIDNEY_R ([…], time 28 day): 1.5 g; KIDNEY_TOTAL ([…], time 28 day): 3.1 g; LIVER ([…], time 7 day): 12.7 g; LIVER ([…], time 14 day): 14.6 g; LIVER ([…], time 28 day): 17.3 g; A/G ([…], time 7 day): 0.8; ALP ([…], time 7 day): 1387.6 IU/L; ALT ([…], time 7 day): 50 IU/L; AST ([…], time 7 day): 79.4 IU/L; BUN ([…], time 7 day): 16 mg/dL; CRE ([…], time 7 day): 0.2 mg/dL; Ca ([…], time 7 day): 10.9 mg/dL; Cl ([…], time 7 day): 106.2 meq/L; DBIL ([…], time 7 day): 0.032 mg/dL; GLC ([…], time 7 day): 180.8 mg/dL; IP ([…], time 7 day): 6.6 mg/dL; K ([…], time 7 day): 4.4 meq/L; LDH ([…], time 7 day): 97.4 IU/L; Na ([…], time 7 day): 144.4 meq/L; PL ([…], time 7 day): 162.8 mg/dL; RALB ([…], time 7 day): 2.8 g/dL; TBIL ([…], time 7 day): 0.08 mg/dL; TC ([…], time 7 day): 74.6 mg/dL; TG ([…], time 7 day): 133.4 mg/dL; TP ([…], time 7 day): 6 g/dL; gamma-GTP ([…], time 7 day): 1 IU/L; A/G ([…], time 14 day): 0.8; ALP ([…], time 14 day): 1241.8 IU/L; ALT ([…], time 14 day): 42.6 IU/L; AST ([…], time 14 day): 73.4 IU/L; BUN ([…], time 14 day): 14.2 mg/dL; CRE ([…], time 14 day): 0.2 mg/dL; Ca ([…], time 14 day): 10.8 mg/dL; Cl ([…], time 14 day): 105.8 meq/L; DBIL ([…], time 14 day): 0.036 mg/dL; GLC ([…], time 14 day): 170.4 mg/dL; IP ([…], time 14 day): 6.5 mg/dL; K ([…], time 14 day): 4.4 meq/L; LDH ([…], time 14 day): 97.8 IU/L; Na ([…], time 14 day): 143.6 meq/L; PL ([…], time 14 day): 150.8 mg/dL; RALB ([…], time 14 day): 2.8 g/dL; TBIL ([…], time 14 day): 0.1 mg/dL; TC ([…], time 14 day): 71.6 mg/dL; TG ([…], time 14 day): 91.2 mg/dL; TP ([…], time 14 day): 6.1 g/dL; gamma-GTP ([…], time 14 day): 1 IU/L; A/G ([…], time 28 day): 0.8; ALP ([…], time 28 day): 1352.6 IU/L; ALT ([…], time 28 day): 36.4 IU/L; AST ([…], time 28 day): 65 IU/L; BUN ([…], time 28 day): 16.8 mg/dL; CRE ([…], time 28 day): 0.3 mg/dL; Ca ([…], time 28 day): 11 mg/dL; Cl ([…], time 28 day): 104 meq/L; DBIL ([…], time 28 day): 0.042 mg/dL; GLC ([…], time 28 day): 182.2 mg/dL; IP ([…], time 28 day): 6.5 mg/dL; K ([…], time 28 day): 4 meq/L; LDH ([…], time 28 day): 93.4 IU/L; Na ([…], time 28 day): 143.8 meq/L; PL ([…], time 28 day): 155.8 mg/dL; RALB ([…], time 28 day): 2.9 g/dL; TBIL ([…], time 28 day): 0.1 mg/dL; TC ([…], time 28 day): 71.2 mg/dL; TG ([…], time 28 day): 117.2 mg/dL; TP ([…], time 28 day): 6.4 g/dL; gamma-GTP ([…], time 28 day): 1.4 IU/L
